Assay results reported in publication PMC8236452, “Pharmacokinetics and safety of rucaparib in patients with advanced solid tumors and hepatic impairment” (Cancer Chemotherapy and Pharmacology, 2021).

Assays:
[1] = parameters: method as in PMID 28222073; settings: immediate-release tablet; cited from earlier work
[2] = system: patients with advanced solid tumors; assay: Safety and tolerability (TEAEs) after a single oral dose of rucaparib 600 mg; assay type: in vivo, human; settings: for TEAE: Abdominal pain / TEAE: Cholangitis / TEAE: Hyperbilirubinemia / TEAE: Hypokalemia: Grade 3 event; for TEAE: Multiple organ dysfunction syndrome: Grade 5 event
Procedure: Safety and tolerability assessments comprised adverse events, clinical laboratory parameters, vital signs, 12-lead ECG, physical examination, and ECOG PS. For part 1 of this study, symptom-associated physical examination and safety laboratory tests, including clinical chemistry, hematology, coagulation, and urinalysis, were performed on day 7 after administration of the first dose of the study medication; 12-lead ECGs were performed 2 and 4 h postdose. All safety assessments were performed at the end of the treatment visit. Treatment-emergent adverse events (TEAEs) were defined as adverse events with an onset date on or after the date of first dose of study treatment until 28 days after the last dose. Causality of treatment-emergent adverse events was evaluated by investigators based on clinical and scientific data for rucaparib, including previously observed and known reactions, temporal relationship of event to rucaparib administration, patient response on […] rechallenge with the drug, medical history and ongoing concomitant conditions, natural course of the disease, potential effects of concomitant medications and interactions with the study drug, and biological plausibility of the event based on mechanism of action of rucaparib.

[3] = Moderate hepatic impairment (NCI-ODWG, n = 8)
[4] = Normal hepatic function (NCI-ODWG, n = 8)

Compound: CNCc1ccc(-c2[nH]c3cc(F)cc4c3c2CCNC4=O)cc1 [rucaparib]
- absolute bioavailability, range [1]: 30–45%
- mean absolute bioavailability [1]: 36%
- TEAE: Anemia [2, 3]: 1 (12.5) n (%)
- TEAE: Ascites [2, 3]: 1 (12.5) n (%)
- TEAE: Body temperature increased [2, 3]: 1 (12.5) n (%)
- TEAE: Conjunctival hemorrhage [2, 3]: 1 (12.5) n (%)
- TEAE: Decreased appetite [2, 3]: 0 n (%)
- TEAE: Nausea [2, 3]: 0 n (%)
- TEAE: Pyrexia [2, 3]: 1 (12.5) n (%)
- TEAE: Renal failure [2, 3]: 1 (12.5) n (%)
- TEAE: Thrombocytopenia [2, 3]: 1 (12.5) n (%)
- TEAE: Urinary tract infection [2, 3]: 1 (12.5) n (%)
- TEAEs: Patients with any event [2, 3]: 6 (75.0) n (%)
- TEAE: Abdominal pain [2, 3]: 1 (12.5) n (%)
- TEAE: Cholangitis [2, 3]: 1 (12.5) n (%)
- TEAE: Hyperbilirubinemia [2, 3]: 1 (12.5) n (%)
- TEAE: Hypokalemia [2, 3]: 1 (12.5) n (%)
- TEAE: Multiple organ dysfunction syndrome [2, 3]: 1 (12.5) n (%)
- TEAE: Anemia [2, 4]: 0 n (%)
- TEAE: Ascites [2, 4]: 0 n (%)
- TEAE: Body temperature increased [2, 4]: 0 n (%)
- TEAE: Conjunctival hemorrhage [2, 4]: 0 n (%)
- TEAE: Decreased appetite [2, 4]: 1 (12.5) n (%)
- TEAE: Nausea [2, 4]: 1 (12.5) n (%)
- TEAE: Pyrexia [2, 4]: 0 n (%)
- TEAE: Renal failure [2, 4]: 0 n (%)
- TEAE: Thrombocytopenia [2, 4]: 0 n (%)
- TEAE: Urinary tract infection [2, 4]: 0 n (%)
- TEAEs: Patients with any event [2, 4]: 2 (25.0) n (%)
- TEAE: Abdominal pain [2, 4]: 0 n (%)
- TEAE: Cholangitis [2, 4]: 0 n (%)
- TEAE: Hyperbilirubinemia [2, 4]: 0 n (%)
- TEAE: Hypokalemia [2, 4]: 0 n (%)
- TEAE: Multiple organ dysfunction syndrome [2, 4]: 0 n (%)
- TEAE: Anemia ([2]; Overall (N = 16)): 1 (6.3) n (%)
- TEAE: Ascites ([2]; Overall (N = 16)): 1 (6.3) n (%)
- TEAE: Body temperature increased ([2]; Overall (N = 16)): 1 (6.3) n (%)
- TEAE: Conjunctival hemorrhage ([2]; Overall (N = 16)): 1 (6.3) n (%)
- TEAE: Decreased appetite ([2]; Overall (N = 16)): 1 (6.3) n (%)
- TEAE: Nausea ([2]; Overall (N = 16)): 1 (6.3) n (%)
- TEAE: Pyrexia ([2]; Overall (N = 16)): 1 (6.3) n (%)
- TEAE: Renal failure ([2]; Overall (N = 16)): 1 (6.3) n (%)
- TEAE: Thrombocytopenia ([2]; Overall (N = 16)): 1 (6.3) n (%)
- TEAE: Urinary tract infection ([2]; Overall (N = 16)): 1 (6.3) n (%)
- TEAEs: Patients with any event ([2]; Overall (N = 16)): 8 (50.0) n (%)
- TEAE: Abdominal pain ([2]; Overall (N = 16)): 1 (6.3) n (%)
- TEAE: Cholangitis ([2]; Overall (N = 16)): 1 (6.3) n (%)
- TEAE: Hyperbilirubinemia ([2]; Overall (N = 16)): 1 (6.3) n (%)
- TEAE: Hypokalemia ([2]; Overall (N = 16)): 1 (6.3) n (%)
- TEAE: Multiple organ dysfunction syndrome ([2]; Overall (N = 16)): 1 (6.3) n (%)
- Patients who withdrew from the study due to a TEAE ([2]; after completion of PK assessment in Part 1, both in the moderate hepatic impairment group): two
- Patients who experienced at least 1 TEAE ([2]; all 16 patients): 50%
- System Organ Class TEAEs: gastrointestinal disorders ([2]; all 16 patients, abdominal pain, ascites, nausea): 18.8%
- Patients with at least 1 TEAE of grade 3 or higher ([2]; all in the moderate hepatic impairment group): Four
- TEAEs considered treatment related ([2]; grade 1 anemia and grade 1 thrombocytopenia, one patient, moderate hepatic impairment group): 2 TEAEs
- Patients who experienced at least 1 TEAE ([2]; moderate hepatic impairment group): 75.0%
- Patients who experienced at least 1 TEAE ([2]; normal hepatic function group): 25.0%
- Trends in clinical laboratory parameters, vital signs, ECG, physical examinations ([2]; single oral rucaparib 600 mg): no clinically relevant treatment-related trends observed
